From patent US20180344715A1, “WNT/BETA-CATENIN SIGNAL TRANSDUCTION INHIBITORS AND THEIR USE IN TREATMENT OR PREVENTION OF DISEASES AND CONDITIONS LINKED WITH SAID TRANSDUCTION” (BERGEN TEKNOLOGIOVERFORING AS, priority 2015, published 2018)

How the values were obtained:
SW480 cells = test: Soft agar colony-formation assay, SW480; assay type: cell-based; conditions: 10 days
Description: The soft agar colony-formation assay was performed using the CellTransformation Assays kit (catalog no. CBA-130; Cell Biolabs, Inc.) according to the recommended protocol. […] Medium containing drugs was replaced every 3 d. For the clonogenic assay, positively transfected cells (wild-type and mutant GFP-SHPRH and control GFP) were enriched by FACS and were seeded in six-well plates at a density of 3,000 cells per well. Medium was changed every 3 d. On the last day colony growth was quantified by crystal violet staining and measurement of OD at 590 nm.

SHPRH = molecular target: T1, SHPRH (Homo sapiens, UniProt Q149N8); test: SHPRH stability and ubiquitination in SW480 cells (cycloheximide, MG132); assay type: cell-based; conditions: SW480, 5 μM
T1 construct: endogenous in cells; host or cells: SW480
Source text: 2D-DIGE images of the DARTS samples. […] Location of β-catenin binding motifs of indicated genes (left) and agarose gel analysis of ChIP-PCR reactions with indicated antibodies (right). d. Western blots of the CoIP samples of SW480 cells using indicated antibodies. e. […] WT, wild type; FL, full length. g. Overexpression of SHPRH in SW480 cells increases the ubiquitination level of β-catenin. h. […] Summary of the mechanisms by which axitinib blocks Wnt/β-catenin signaling.
Culture cells were lysed in RIPA buffer (50 mM Tris-HCl, pH 7.4, 150 mM NaCl, 1% NP-40, 0.5% sodium deoxycholate, 0.1% SDS, 1 mM EDTA) containing freshly added protease inhibitors (Roche, 11836153001). Protein lysates were resolved in Novex 10% BisTris MiniGels (Life technologies, NP0303BOX) and transferred onto PVDF membranes with Pierce 1-Step Transfer Buffer (Thermo Fisher Scientific, 84731). […] Proteins were visualized and captured by a ChemiDOC XRS system and Quantity One software (Bio-Rad Laboratories).
Cells were harvested and re-suspended with 100 μl ice cold TBS (50 mM Tris-HCL pH 8.0, 150 mM NaCl) containing 2 μM N-Ethylmaleimide crystalline that was supplemented to all the following buffers. […] Following addition of 80 μl 2% SDS sample buffer containing 10 mM DTT (Sigma, D9779), the beads were boiled at 98° C. for 5 minutes and collected with Magnet, the supernatant was analyzed by Western blotting.

[1] = tested on: Wnt signals (TCF-GFP reporter); test: TCF-GFP expression assay in transgenic zebrafish embryos; assay type: in vivo; conditions: embryos treated for 2 days
Description: Transgenic zebrafish harboring Tcf/Lef-miniP:dGFP reporter (line isi04) was obtained from National BioResource Project Zebrafish, Japan. Fish were kept under standard conditions and treated humanely in accordance with approved Institutional Animal Care and Use Committee of University of Bergen. For embryo experiments, embryos at 6 hpf (hours post fertilization) were cultured in 6-well plates (20 embryos per well) at 28° C. Embryos were treated with indicated chemicals and water was replenished daily. […] For TCF-GFP expression assay, embryos at 3 dpf were examined under fluorescence microscope. In both assays embryos that died during treatment were excluded from assessment.

free GFP = molecular target: T2, free GFP (Aequorea victoria, UniProt P42212); test: MST ligand-binding assay, free GFP negative control; conditions: SW480 cell lysates, negative controls, two parallels
T2 construct: expressed in transfected cells; host or cells: SW480
Description: Ten million SW480 cells overexpressing GFP-tagged SHPRH or free GFP were lysed in 1 mL radioimmunoprecipitation assay (RIPA) buffer. Cell lysates were diluted in buffer A [50 mM Hepes buffer (pH 7.5), 5 mM DTT, 10 mM CaCl2), 50 mM NaCl, and 0.05% Tween-20] to a final concentration at which the fluorescent signals of the GFP proteins were similar and well above the detection limit of the Monolith NT.115 instrument (NanoTemper Technologies GmbH). Ten microliters of each receptor were mixed with 10 μL of the ligand at various concentrations from 100 μM to 3.05 nM. Specifically, the ligand (4 mM in 100% DMSO) was diluted 1:20 to a final concentration of 200 μM in buffer A (giving 5% DMSO). Ten microliters of the 200 μM ligand solution was further serially diluted 1:1 in 10 μL of buffer A supplemented with 5% DMSO to make a 16-sample dilution series down to 6.1 nM. Ten microliters of the cell lysate were added to 10 μL of each ligand solution. […] The fluorescence signal during the thermophoresis was monitored for 30 s, and the change in fluorescence was analyzed as thermophoresis with T-jump. The Kd was calculated by fitting a standard binding curve to the average of four independent dilution series.

β-catenin = test: Western blotting of β-catenin in SW480 cells; assay type: cell-based
Description: Culture cells were lysed in RIPA buffer (50 mM Tris-HCl, pH 7.4, 150 mM NaCl, 1% NP-40, 0.5% sodium deoxycholate, 0.1% SDS, 1 mM EDTA) containing freshly added protease inhibitors (Roche, 11836153001). Protein lysates were resolved in Novex 10% BisTris MiniGels (Life technologies, NP0303BOX) and transferred onto PVDF membranes with Pierce 1-Step Transfer Buffer (Thermo Fisher Scientific, 84731). Membranes were developed by using Pierce Fast Western Blot Kit with ECL Substrate (Thermo Fisher Scientific, 35050) and primary antibodies (β-catenin, ab16051, 1:2000 Abcam; GAPDH, ab181602, clone EPR16891, 1:20000, Abcam; hemagglutinin, ab9134, 1:2000, Abcam; FLAG, ab1162, 1:1000, Abcam; ubiquitin, ab7254, clone Ubi-1, 1:5000, Abcam; SHPRH, ab80129, 1:1000, Abcam; non-phospho-(active) β-catenin (Ser33/37/Thr41), 4270, 1:1000, Cell Signaling Technology; phospho-3-catenin (Ser33/37/Thr41), 9561, 1:1000, Cell Signaling Technology; β-catenin-Thr41/Ser45, 9565, 1:1000, Cell Signaling Technology; MED23, BD550429, clone D27-1805, 1:500, BD Biosciences). Proteins were visualized and captured by a ChemiDOC XRS system and Quantity One software (Bio-Rad Laboratories).

transgenic zebrafish = test: Tailfin regeneration assay in adult TCF-GFP transgenic zebrafish; conditions: 5 μM

T1 sequence (Q149N8 whole entry): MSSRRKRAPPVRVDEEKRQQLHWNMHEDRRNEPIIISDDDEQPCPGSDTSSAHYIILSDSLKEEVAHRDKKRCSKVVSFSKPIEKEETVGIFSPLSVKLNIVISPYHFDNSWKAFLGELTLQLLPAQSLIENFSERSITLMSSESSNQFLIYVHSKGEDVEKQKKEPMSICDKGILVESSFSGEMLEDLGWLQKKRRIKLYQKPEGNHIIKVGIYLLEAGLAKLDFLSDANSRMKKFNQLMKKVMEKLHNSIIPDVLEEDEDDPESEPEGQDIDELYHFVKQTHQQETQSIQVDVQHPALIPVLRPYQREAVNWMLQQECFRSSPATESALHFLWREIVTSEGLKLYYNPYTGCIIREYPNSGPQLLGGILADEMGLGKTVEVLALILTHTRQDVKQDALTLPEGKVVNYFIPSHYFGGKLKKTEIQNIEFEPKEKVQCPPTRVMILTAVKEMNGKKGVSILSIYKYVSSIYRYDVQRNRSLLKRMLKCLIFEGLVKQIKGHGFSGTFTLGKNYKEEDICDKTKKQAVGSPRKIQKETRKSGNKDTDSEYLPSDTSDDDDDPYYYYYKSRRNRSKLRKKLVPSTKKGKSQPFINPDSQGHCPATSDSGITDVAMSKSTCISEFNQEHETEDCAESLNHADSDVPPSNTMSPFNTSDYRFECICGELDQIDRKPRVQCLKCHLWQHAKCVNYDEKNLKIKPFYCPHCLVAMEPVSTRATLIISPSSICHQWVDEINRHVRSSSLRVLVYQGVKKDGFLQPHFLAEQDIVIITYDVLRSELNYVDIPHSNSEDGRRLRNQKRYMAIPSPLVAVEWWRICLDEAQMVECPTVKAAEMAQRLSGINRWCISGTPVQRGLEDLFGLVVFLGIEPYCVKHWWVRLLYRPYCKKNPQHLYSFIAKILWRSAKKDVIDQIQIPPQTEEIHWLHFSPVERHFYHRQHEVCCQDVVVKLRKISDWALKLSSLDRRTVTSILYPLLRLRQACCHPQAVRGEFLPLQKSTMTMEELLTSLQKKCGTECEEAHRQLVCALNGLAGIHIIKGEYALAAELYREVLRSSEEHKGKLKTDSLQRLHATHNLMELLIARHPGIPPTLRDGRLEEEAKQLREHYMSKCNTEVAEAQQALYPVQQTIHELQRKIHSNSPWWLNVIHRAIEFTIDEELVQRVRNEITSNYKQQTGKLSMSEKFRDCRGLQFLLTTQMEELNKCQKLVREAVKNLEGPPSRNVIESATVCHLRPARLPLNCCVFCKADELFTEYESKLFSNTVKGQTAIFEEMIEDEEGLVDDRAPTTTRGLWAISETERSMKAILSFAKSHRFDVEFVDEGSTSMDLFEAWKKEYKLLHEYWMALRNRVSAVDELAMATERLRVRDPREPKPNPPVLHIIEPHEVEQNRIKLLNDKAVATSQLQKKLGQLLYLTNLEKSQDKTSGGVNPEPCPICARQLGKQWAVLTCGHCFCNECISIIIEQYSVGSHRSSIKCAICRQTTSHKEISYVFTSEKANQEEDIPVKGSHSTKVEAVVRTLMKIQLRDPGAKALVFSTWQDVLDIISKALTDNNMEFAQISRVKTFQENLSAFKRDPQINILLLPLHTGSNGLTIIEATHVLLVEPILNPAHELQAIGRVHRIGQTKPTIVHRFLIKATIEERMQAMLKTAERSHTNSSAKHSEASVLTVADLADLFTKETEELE

## CNC(=O)c1ccccc1Sc1ccc2c(/C=C/c3ccccn3)n[nH]c2c1 [axitinib, N-Methyl-2-[[3-[(E)-2-pyridin-2-ylethenyl]-1H-indazol-6-yl]sulfanyl]benzamide]
SW480 cells
  colony growth: strongly and dose-dependently inhibited
SHPRH; 6 hours, with cycloheximide
  stability of SHPRH: increased
SHPRH; MG132, 6 hours
  ubiquitination level of SHPRH: decreased
[1]
  TCF-GFP expression in the midbrain/hindbrain boundary and fin mesenchyme: decreased
Free GFP
  binding of the ligand to free GFP: did not show any binding
β-catenin; APC mutant SW480 cells, 24 hours
  phosphorylated and non-phospho (active) β-catenin (ABC): reduced
β-catenin; SW480, dose course 24 hours, time course at 5 μM
  β-catenin level (Western blots): dose and time dependent decrease
Transgenic zebrafish; 6 consecutive days
  tailfin regrowth and TCF-GFP activation: completely inhibited
Transgenic zebrafish; 6 days
  intestine: crypt-villus architecture and incorporation of BrdU: no significant change
